According to paper PMC12220852, “An adamantane‐based ligand as a novel chemical tool for thermosensory TRPM8 channel therapeutic modulation” (The Febs Journal, 2025):
“Also recorded” adds a separate entry of the source.

Legend:
hTRPM8 = target: T1, hTRPM8 (Homo sapiens, UniProt Q7Z2W7); assay: Whole-cell patch-clamp of WS-12-evoked currents in HEK293 cells expressing hTRPM8; assay type: cell-based
T1 construct: expressed in transfected cells; host or cells: HEK293 (transient, Lipofectamine 3000)
Source text: We first used patch‐clamp to investigate the potency and blockade mechanism of compound 23 inhibiting WS‐12 evoked ionic currents in hTRPM8‐HEK293 cells. […] This blockade activity was reversible as virtually all WS‐12‐evoked ionic current could be recovered upon washout (Fig. 3A, bottom panel), thus preventing a use‐dependent side effect.
To unveil the underlying mechanism of channel blockade (competitive vs noncompetitive) we evaluated the effect of the α‐acyloxy carboxamide 23 on WS‐12 activating potency. For this purpose, we obtained the WS‐12 dose response in the absence and presence of 80 nM compound 23 (corresponding to its IC50 value).
For this purpose, we run 100 ms voltage ramps from −120 to 120 mV activated by WS‐12 in the absence and presence of 80 nM α‐acyloxy carboxamide 23.
(§1) Recording through patch‐clamp techniques was performed on HEK293 cells cultured in DMEM GlutaMax with 10% FBS and 1% P/S. The cell lines were authenticated following the standardization of STR Profiling guidelines (ANSI/ATCC ASN‐0002‐2022) using the CLA Identifier Plus PCR Amplification Kit (Thermo Fisher‐A44660) to analyze 16 highly variant human STRs. The cells were confirmed to be mycoplasma‐free. These cells were transiently transfected with plasmids encoding hTRPV1, hTRPM8, or hTRPA1 using Lipofectamine 3000. Transfected cells were seeded on 12 mm Ø glass coverslips treated with poly‐L‐lysine solution and recorded 2 days post‐transfection. The intracellular pipette solution included (in mM) 150 NaCl, 3 MgCl2, 5 EGTA, and 10 HEPES, pH 7.2 with CsOH, while the extracellular solution contained (in mM) 150 NaCl, 6 CsCl, 1 MgCl2, 1.5 CaCl2, 10 glucose, and 10 HEPES, pH 7.4 with NaOH. An EPC‐10 amplifier with Patchmaster software was used in whole‐cell experiments. Patch pipettes, created from thin‐wall borosilicate capillary glass tubing, were pulled with a Micropipette puller to a final resistance of 2–8 MΩ when filled with the internal solution. Recordings were acquired at 10 kHz and low‐pass filtered at 3 kHz, discarding recordings with leak currents > 200pA or series resistance > 20 MΩ. In voltage‐clamp recordings, cells were held at a constant potential, and the application of modulators was carried out using a gravity‐driven perfusion system. Total currents were normalized to the first current peak evoked by the activating stimuli. To study the effect of compound 23 on TRPM8 voltage dependence, a voltage step protocol from −120 to 120 mV was used with 100 ms steps of 20 mV from a holding potential at 0 mV. Leak currents were not subtracted, and conductance was calculated using the equation: G = I/(V − V r), where I is the measured ionic current, V is the applied voltage, and V r is the reversal potential that for the ionic conditions used was set to 0 mV.
Dose–response relationships for WS‐12 channel activation were normalized to the response of the channel to a saturating concentration of the agonist. Similarly, dose–response curves for blockade activity were normalized with respect to the response in the absence of the blocker. The experimental data were fitted to the Hill equation: Y=Bottom+Top‐Bottom/(1+10^ligand−LogIC50orLogEC50) using PRISM 9 software. Top was fixed to 100, as the unblocked response or the maximal response for WS‐12.

[1] = Metabolic stability and metabolite profile in mouse liver microsomes (MLM); assay type: in vitro ADME; conditions: phase I metabolites of compound 23 in MLM, LC-HRMS, estimated from total ion current
Method: Because of the lack of systemic activity of compound 23, we evaluated the in vitro plasmatic and hepatic metabolic stability. To this aim, compound 23 was exposed to mouse plasma and mouse liver microsome (MLM) fractions, and the residual substrate was measured after 1 h. Under these conditions, the residual substrate was about 97% and 90% in plasma and microsomes, respectively, denoting that this molecule suffers from mild hydrolysis of the ester group.
Metabolic biotransformation of compound 23 was investigated by tandem high‐resolution mass spectrometry using the software COMPOUND DISCOVERER 3.2™.
The standard incubation mixture (250 μL final volume) was carried out in a 50 mM Tris (tris[hydroxymethyl]aminomethane) buffer (pH 7.4) containing 150 mM KCl, […], 3.3 mM MgCl2, 1.3 mM NADPNa2, 3.3 mM glucose 6‐phosphate, 0.4 units·mL^−1 glucose 6‐phosphate dehydrogenase, acetonitrile as cosolvent (1% of total volume), and the substrate (50 μM). After pre‐equilibration of the mixture, an appropriate volume of MLM suspension was added to give a final protein concentration of 1.0 mg·mL^−1. The mixture was shaken for 60 min at 37 °C using a horizontal shaking thermostatic bath while protecting the samples from light. Control incubations were carried out without the presence of substrate, or NADPH regenerating system, or microsomes. Each incubation was stopped by the addition of 250 μL of ice‐cold acetonitrile, vortexed, and centrifuged at 13 000 r.p.m. for 5 min [68]. The supernatants were analyzed by LC‐UV and LC‐HRMS equipment (see Tables S1 and S2, Fig. S79 for full parameters setting in the Supporting Information).
The metabolic stability of the compound 23 was determined in vitro by measuring the residual peak area after incubation by LC‐UV analysis. Samples were further processed by LC‐HRMS equipment for metabolite profiling. Raw data files were processed using both XCALIBUR® and COMPOUND DISCOVERER 3.2® software (Thermo Scientific) using a customized workflow for the detection and identification of the expected and unknown metabolites (Fig. S80).

[2] = target: T2, recombinant human TRPM8 stably expressed in HEK293 cells (hTRPM8) (Homo sapiens, UniProt Q7Z2W7); assay: Ca2+ microfluorimetry screen for agonist/antagonist activity in hTRPM8-HEK293 cells; assay type: cell-based; conditions: agonists vs WS-12, antagonists vs WS-12 response, read-out: Efficacy (percentage of maximal activation or blockade)
T2 construct: expressed in transfected cells

[3] = target: T2, recombinant human TRPM8 stably expressed in HEK293 cells (hTRPM8); assay: as above; assay type: cell-based; conditions: for Activity (agonist/antagonist): agonism = compound-induced Ca2+ influx, antagonism = modulation of WS-12-induced Ca2+ influx; for EC50: half of channel activation; for Hill coefficient: hTRPM8-HEK293 Ca2+ microfluorimetry dose-response
Source text: We first evaluated the series of compounds 20–29 synthesized using the Passerini‐Adamantane reaction. All compounds were screened for channel agonism and antagonism on recombinant human TRPM8 stably expressed in HEK293 cells (hTRPM8‐HEK293) with Ca^2+ microfluorimetry. […] Compound‐induced TRPM8‐mediated Ca^2+ influx was confirmed using untransfected HEK293 cells and the channel blocker AMTB. […] The concentration of compounds to reach half of channel activation (EC50) or to block half‐channel activity evoked by WS‐12 (IC50) are reported in Table 1, along with the percentage of maximal activation or blockade (Efficacy).
Assays were conducted to assess the channel activity of the recombinant hTRPM8 stably expressed in HEK‐293 cells. HEK‐293‐hTRPM8 cells were cultured in a monolayer using a DMEM GlutaMax with 10% FBS and 1% P/S and maintained at 37 °C in 5% CO2. For experiments, cells were prepared and seeded at the indicated densities. To evaluate compound effectiveness against hTRPM8 activity, microfluorometry‐based calcium flux assays were performed using Fluo‐4 NW Ca^2+ dye and fluorescence detection. HEK cell lines expressing hTRPM8 were seeded in 96‐well plates and incubated with the dye‐loading solution. Ion channel activity was measured using a plate reader, and fluorescence intensity changes were recorded following the addition of vehicle, compound at varying concentrations, and antagonist (10 μM AMTB). Data analysis included calculating the Z‐factor for each assay and normalizing compound effects to […]. Data were analyzed to determine the concentration exerting half‐maximal inhibition (IC50) or activation (EC50) of agonist‐induced calcium elevation, using GRAPHPAD PRISM8® software (Boston, MA, USA). All experiments were conducted in triplicate, and results are presented as mean ± standard deviation.

hTRPA1 = target: T3, hTRPA1 (Homo sapiens, UniProt O75762); assay: Whole-cell patch-clamp of AITC-evoked currents in HEK293 cells expressing hTRPA1; assay type: cell-based; conditions: 5 μM compound, 60 μM AITC, −60 mV
T3 construct: expressed in transfected cells; host or cells: HEK293 (transient, Lipofectamine 3000)
Method: To evaluate receptor selectivity, we investigated the activity of compound 23 on recombinant hTRPV1 and hTRPA1 channels recombinantly expressed in HEK293 cells (Fig. 4). We choose these thermosensory channels because of their structural similarity and expression in peripheral nociceptive terminals. In addition, some ligand cross‐interaction within these channels has been reported.
as §1, with “Total currents were normalized to the first current peak evoked by the activating stimuli. To study the effect of compound 23 on TRPM8 voltage dependence, a voltage step protocol from −120 to 120 mV was used with 100 ms steps of 20 mV from a holding potential at 0 mV.” left out, “mV. […]” for “mV.”

[4] = hTRPM8-HEK293, mean ± SD, N = 3

T1 sequence (Q7Z2W7 whole entry): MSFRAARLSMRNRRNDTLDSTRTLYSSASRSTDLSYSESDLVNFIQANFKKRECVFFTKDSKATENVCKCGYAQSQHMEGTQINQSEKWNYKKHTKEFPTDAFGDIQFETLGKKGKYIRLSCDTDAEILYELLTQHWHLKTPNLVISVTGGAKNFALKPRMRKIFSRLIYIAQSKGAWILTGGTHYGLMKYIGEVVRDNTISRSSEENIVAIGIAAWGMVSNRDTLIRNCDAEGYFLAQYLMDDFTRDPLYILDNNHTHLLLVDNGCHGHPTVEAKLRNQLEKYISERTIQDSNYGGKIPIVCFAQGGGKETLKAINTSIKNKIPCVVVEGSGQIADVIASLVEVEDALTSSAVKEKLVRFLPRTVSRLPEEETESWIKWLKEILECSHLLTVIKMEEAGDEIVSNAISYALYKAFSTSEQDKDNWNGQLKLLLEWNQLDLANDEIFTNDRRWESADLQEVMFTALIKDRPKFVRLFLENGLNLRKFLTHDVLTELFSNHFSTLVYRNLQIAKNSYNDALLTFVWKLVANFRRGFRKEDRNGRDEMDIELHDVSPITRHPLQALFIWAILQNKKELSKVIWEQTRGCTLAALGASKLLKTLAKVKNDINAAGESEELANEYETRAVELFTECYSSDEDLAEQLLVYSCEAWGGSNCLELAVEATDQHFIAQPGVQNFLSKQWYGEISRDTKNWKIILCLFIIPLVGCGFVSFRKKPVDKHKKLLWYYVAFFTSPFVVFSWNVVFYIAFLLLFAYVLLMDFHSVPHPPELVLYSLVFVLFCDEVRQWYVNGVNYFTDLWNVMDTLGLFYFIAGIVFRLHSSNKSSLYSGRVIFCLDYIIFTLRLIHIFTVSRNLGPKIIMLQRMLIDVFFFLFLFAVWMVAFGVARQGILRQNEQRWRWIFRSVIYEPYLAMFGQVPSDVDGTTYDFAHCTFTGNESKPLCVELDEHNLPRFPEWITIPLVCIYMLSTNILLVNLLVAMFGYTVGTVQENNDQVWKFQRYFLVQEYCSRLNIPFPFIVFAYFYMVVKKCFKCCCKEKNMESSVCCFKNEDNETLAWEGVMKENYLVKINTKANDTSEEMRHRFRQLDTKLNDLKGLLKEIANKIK
T2 sequence (Q7Z2W7 whole entry): as above
T3 sequence (O75762 whole entry): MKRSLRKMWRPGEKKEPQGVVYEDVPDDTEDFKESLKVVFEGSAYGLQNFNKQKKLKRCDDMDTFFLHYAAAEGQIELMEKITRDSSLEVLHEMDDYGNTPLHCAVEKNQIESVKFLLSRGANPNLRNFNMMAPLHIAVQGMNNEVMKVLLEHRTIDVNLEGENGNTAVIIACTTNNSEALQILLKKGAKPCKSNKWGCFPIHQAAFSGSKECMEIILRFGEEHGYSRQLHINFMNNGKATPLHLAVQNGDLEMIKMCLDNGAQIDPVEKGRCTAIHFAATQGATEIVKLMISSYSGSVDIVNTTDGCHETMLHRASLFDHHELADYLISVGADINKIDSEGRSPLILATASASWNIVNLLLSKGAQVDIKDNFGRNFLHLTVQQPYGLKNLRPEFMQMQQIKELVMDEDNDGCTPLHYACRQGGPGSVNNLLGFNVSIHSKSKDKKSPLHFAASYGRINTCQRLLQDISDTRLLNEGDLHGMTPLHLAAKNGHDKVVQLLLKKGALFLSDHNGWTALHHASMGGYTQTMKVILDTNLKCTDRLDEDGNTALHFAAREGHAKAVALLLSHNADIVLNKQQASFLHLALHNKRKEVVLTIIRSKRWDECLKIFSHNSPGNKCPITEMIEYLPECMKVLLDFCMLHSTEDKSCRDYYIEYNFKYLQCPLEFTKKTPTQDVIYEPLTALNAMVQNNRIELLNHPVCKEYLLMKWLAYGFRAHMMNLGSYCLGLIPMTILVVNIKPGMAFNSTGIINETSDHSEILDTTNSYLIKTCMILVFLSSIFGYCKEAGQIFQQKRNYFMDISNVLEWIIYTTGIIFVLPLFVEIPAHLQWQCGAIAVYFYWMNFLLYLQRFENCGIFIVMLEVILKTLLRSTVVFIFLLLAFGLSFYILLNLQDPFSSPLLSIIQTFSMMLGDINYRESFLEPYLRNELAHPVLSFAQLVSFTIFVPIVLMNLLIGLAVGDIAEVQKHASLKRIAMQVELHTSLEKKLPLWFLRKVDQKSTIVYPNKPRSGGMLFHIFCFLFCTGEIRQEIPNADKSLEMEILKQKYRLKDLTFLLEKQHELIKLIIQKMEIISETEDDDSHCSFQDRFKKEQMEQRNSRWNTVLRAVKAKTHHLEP

Emax [2] [%] | Activity (agonist/antagonist) ([3]; hTRPM8-HEK293) | Hill coefficient ([3]; mean ± SD) | SMILES | other results
 |  |  | Cc1cccc(COc2ccccc2C(=O)N(CCCN)Cc2cccs2)c1 [AMTB, N‐(3‐aminopropyl)‐2‐{[(3‐methylphenyl)methyl]oxy}(20)‐N‐(2‐thienylmethyl)benzamide, reference compound] | voltage dependency of channel blockade (hTRPM8; voltage steps −120 to 120 mV, 0.08 μM compound 23, 10 μM AMTB): not voltage dependent
 |  |  | O=C(CO)NC12CC3CC(CC(C3)C1)C2 [Compound M1a] | Metabolite relative abundancy [1]: 18.7%
 |  |  | COc1ccc(NC(=O)[C@@H]2C[C@H](C)CC[C@H]2C(C)C)cc1 [WS‐12, (1R,2S,5R)‐N‐(4‐methoxyphenyl)‐5‐methyl‐2‐(propan‐2‐yl)cyclohexane‐1‐carboxamide, reference compound] | WS‐12 Hill coefficient in the absence of compound 23 (hTRPM8; patch-clamp): 1.17; WS‐12 Hill coefficient in the presence of compound 23 (hTRPM8; patch-clamp, 0.08 μM compound 23): 0.95; EC50 (hTRPM8; patch-clamp, n = 18, read-out: WS‐12 EC50 in the absence of compound 23): 3 µM
48 | Agonist | 0.9 ± 9.2 | CC(=O)N(CC(=O)NC12CC3CC(CC(C3)C1)C2)C1CCCCC1 [Compound 37, N‐((3S,5S,7S)‐adamantan‐1‐yl)‐2‐(N‐cyclohexylacetamido)acetamide] | EC50 [3, 4]: 0.2 µM
49 | Agonist | 2.1 ± 1.0 | O=C(CN(Cc1ccccc1)C(=O)Cc1ccccc1)NC12CC3CC(CC(C3)C1)C2 [Compound 41, N‐(2‐(((3S,5S,7S)‐adamantan‐1‐yl)amino)‐2‐oxoethyl)‐N‐benzyl‐2‐phenylacetamide] | EC50 [3, 4]: 0.9 ± 1.1 µM
 |  |  | CC(C)c1ccc(NC(=O)Cn2cnc3c2c(=O)n(C)c(=O)n3C)cc1 [HC030031, 2‐(1,3‐Dimethyl‐2,6‐dioxo‐1,2,3,6‐tetrahydro‐7H‐purin‐7‐yl)‐N‐(4‐isopropylphenyl)acetamide, reference compound] | block of hTRPA1‐evoked (AITC) current (hTRPA1): completely abrogated

SMILES | Emax [2] [%] | Activity (agonist/antagonist) ([3]; hTRPM8-HEK293) | Hill coefficient ([3]; mean ± SD) | other results
O=C(CN(C(=O)c1cc2ccccc2s1)C1CC1)NC12CC3CC(CC(C3)C1)C2 [Compound 35, N‐(2‐(((3S,5S,7S)‐adamantan‐1‐yl)amino)‐2‐oxoethyl)‐N‐cyclopropylbenzo[b]thiophene‐2‐carboxamide] | 40 | moderate antagonistic activity; also recorded: Antagonist | 2.0 ± 4.3 | IC50 ([3]; hTRPM8-HEK293, block of half channel activity evoked by WS-12, mean ± SD, N = 3, read-out: IC50): 0.6 ± 1.2 µM
